# What was measured:
# [1] = test system: Acinetobacter baumannii, Escherichia coli, Enterobacter cloacae, E. aerogenes, Klebsiella oxytoca, Pseudomonas aeruginosa, Salmonella enteridis, Vibrio mimicus; assay type: cell-based, Gram-negative bacteria
# [2] = test system: M. tuberculosis H37Rv-GFP in mouse bone marrow-derived macrophages; assay type: cell-based, Mycobacterium tuberculosis
# [3] = test system: Staphylococcus aureus, S. epidermis, S. capitis, S. xylosus, Micrococcus luteus, Listeria innocua, Lactobacillus gallinarum, group G Streptococcus …; assay type: cell-based, Gram-positive bacteria
# [4] = test system: Candida albicans, C. glabrata, C. parapsilosis; assay type: cell-based, Fungi
# [5] = test system: C. striatum; assay type: cell-based, Corynebacterium striatum
# [6] = test system: M. tuberculosis H37Rv-GFP; assay: microbe, parasite or virus in culture; assay type: cell-based, Mycobacterium tuberculosis; settings: Mycobacterium tuberculosis, H37RV, read-out: MIC Extracellular
# [7] = test system: BCG Pasteur-Tokyo; assay type: cell-based, M. bovis BCG
# [8] = test system: M. tuberculosis H37Ra; assay type: cell-based
# [9] = test system: M. tuberculosis H37Rv-GFP in human primary macrophages; assay type: cell-based, Mycobacterium tuberculosis
# [10] = in vitro; settings: C57BL/6, mouse
# [11] = test system: M. tuberculosis H37Rv; assay type: cell-based
# [12] = test system: BCG Wild Type; assay: microbe, parasite or virus in culture; assay type: cell-based, M. bovis BCG; settings: Mycobacterium tuberculosis variant bovis BCG, BCG
# [13] = test system: M. smegmatis mc2 155; assay type: cell-based
# [14] = test system: M. tuberculosis H37Ra; assay type: cell-based; remark: listed apart in the source
# [15] = test system: C. jeikeium; assay type: cell-based, Corynebacterium jeikeium
# [16] = test system: M. tuberculosis H37Rv; assay type: cell-based; remark: listed apart in the source
# [17] = test system: M. tuberculosis H37Rv-GFP in Raw264.7 macrophages; assay: microbe, parasite or virus in culture; assay type: cell-based, Mycobacterium tuberculosis; settings: Mycobacterium tuberculosis, H37RV, read-out: MIC Intracellular
# [18] = test system: M. smegmatis mc2 155 Wild Type; assay: microbe, parasite or virus in culture; assay type: cell-based; settings: Mycolicibacterium smegmatis, MC2155
structure (smiles),measurement,setting,value
"COc1ccc(OCCNC(=O)c2cc([N+](=O)[O-])cc([N+](=O)[O-])c2)cc1 [Compound 8, N-(2-(4-methoxyphenoxy)ethyl)-3,5-dinitrobenzamide]",Range of MICs for multiple strains,[1],> 250 µM
same,decrease in the number of CFUs,[2],More than a ten-fold decrease
same,Range of MICs for multiple strains,[3],> 250 µM
same,Range of MICs for multiple strains,[4],> 250 µM
same,Range of MICs for multiple strains,[5],27 µM
same,MIC,[6],0.2 µM
same,Range of MICs for multiple strains,[7],0.2 µM
same,effect on the synthesis of the arabinan domains of arabinogalactan (AG) and lipoarabinomannan (LAM),[8],clear-cut effect
same,"effects on the biosynthesis of fatty acids, mycolic acids and/or other lipids",[8],no effects
same,decrease in the number of CFUs,[9],More than a ten-fold decrease
same,IC50,[10],50 µM
same,bactericidal effect on M. tuberculosis,[11],time-dependent
same,MIC,[12],0.075 µg/mL
same,Range of MICs for multiple strains,[13],0.4 µM
same,Range of MICs for multiple strains,[14],0.2 µM
same,Range of MICs for multiple strains,[15],2.7 µM
same,Range of MICs for multiple strains,[16],0.2 µM
same,MIC,[17],0.2 µM
same,MIC,[18],0.15 µg/mL

# From PMC2763345 (PLoS Pathogens, 2009)
